Data as given in paper PMC5556071, “ATR inhibition facilitates targeting of leukemia dependence on convergent nucleotide biosynthetic pathways” (Nature Communications, 2017).
“And” between values parts separate entries of the source, which are not always exact repeats. Identical values can stand only once.

Test system: CEM cells
Experiment: Non-targeted LC-MS metabolite profiling: percent [13C6]glucose labeling and relative metabolite levels
Type: cell-based, human
Conditions: CEM cells, 12 h following release from G1 arrest, replicates #1-#6
Description: To further investigate the functions of dCK and ATR at the G1/S transition in CEM cells, a non-targeted liquid chromatography mass spectrometry (LC-MS) assay was used to determine the utilization of labeled [^13C6]glucose and [^13C9,^15N3]deoxycytidine, the main substrates for de novo and salvage nucleotide biosynthesis, respectively. Of the 166 metabolites identified in CEM cells treated with VE-822 and/or dCKi, 105 metabolites found in all four treatment groups contained glucose-derived ^13C atoms. […] These metabolites included intermediates such as rUTP, rCTP and rCDP in the de novo dCTP biosynthesis (Fig. 1d). […] However, several deoxyribonucleotides, including dCTP, were below the limit of detection of the non-targeted LC-MS approach, raising the concern that the sensitivity of this assay is not sufficient to measure the contribution of the salvage pathway or the ratio of de novo and salvage biosynthesis to these pools. To address this problem, a newly developed targeted MS assay was developed (Fig. 1e and Supplementary Fig. 3). In this assay, samples containing either extracted dNTPs or hydrolyzed DNA from labeled cells are separated by LC for detection by a triple quadrupole mass spectrometer using multiple reaction monitoring (LC-MS/MS-MRM). The first (Q1) and third (Q3) quadrupoles function as mass filters, while the second (Q2) quadrupole serves as a collision chamber (Fig. 1e). For instance, to profile the biosynthetic composition of deoxycytidine (dC) derived from hydrolyzed DNA or dCTP, an intact, protonated dC ion is selected in Q1, followed by fragmentation of the glycosidic bond, which releases protonated cytosine in Q2, that is filtered in Q3 and detected to generate an ion chromatogram. The peak areas for the ion chromatograms of salvage [^13C9,^15N3]dC (red trace), de novo [^13C5]dC (black trace, from [^13C6]glucose) and unlabeled dC (gray trace) (Fig. 1e) are used to determine the relative contributions of the de novo and salvage routes both to dCTP pools and to DNA-incorporated dCTP.
Cells were transferred into RPMI-1640 without glucose and supplemented with 10% dialyzed FBS (Gibco) containing the following labeled substrates: precursors for de novo [U-^13C6]glucose (Sigma-Aldrich, 389374) at 11 mM; precursors for purine salvage [U-^13C10,^15N5]dA (Cambridge Isotopes, CIL 3896), [^15N5]dA (Cambridge Isotopes, NLM-3895) and [^15N5]dG (Cambridge Isotopes, NLM-3899) at 5 µM or as indicated; and precursors for pyrimidine salvage: [U-^13C9,^15N3]dC (Silantes, 124603602) and [U-^13C10,^15N2]dT (Cambridge Isotopes, CNLM-3902) at 5 µM and [^15N2]orotate (Cambridge Isotopes, NLM-1048) at indicated concentrations. The cells were incubated for 12 h or as indicated before sample collection and processing. […]
Non-targeted LC-MS metabolic assays. 1 x 10^6 cells were washed with ice-cold 150 mM ammonium acetate twice before adding 1 mL of ice-cold 80% methanol with 10 nM norvaline as an internal standard. After vigorous vortexing, samples were centrifuged at maximum speed, the aqueous layer was transferred to a glass vial and the metabolites were dried under vacuum. Metabolites were resuspended in 50 μL 70% acetonitrile (ACN) and 5 μL of this solution used for the mass spectrometer-based analysis. The analysis was performed on a Q Exactive (Thermo Scientific) in polarity-switching mode with positive voltage 4.0 kV and negative voltage 4.0 kV. The mass spectrometer was coupled to an UltiMate 3000RSLC (Thermo Scientific) UHPLC system. Mobile phase A was 5 mM ammonium acetate (NH4AcO), pH 9.9, B was acetonitrile and the separation achieved on a Luna […] NH2 100 A column (150 × 2.0 mm, Phenomenex). The flow was 200 μL/min, and the gradient ran from 15% A to 95% A in 18 min, followed by an isocratic step for 9 min and re-equilibration for 7 min. Metabolites were detected and quantified as area under the curve based on retention time and accurate mass (≤ 3 p.p.m.) using the TraceFinder 3.1 (Thermo Scientific). Relative amounts of […]

COc1ccc(-c2nc([C@@H](C)Sc3nc(N)cc(N)n3)c(C)s2)cc1OCCNS(C)(=O)=O [dCKi]
Glucose labeling, Trp (C00078): 0.00%
Glucose labeling, Val (C00183): 0.00%
Relative level, PEP: 0.343
Glucose labeling, Isocaproate (listed as D): 0.00% (5×) and -2.22e-14%
Glucose labeling, Lac (listed as D): 17.43% and 30.68% and 33.28% and 15.68% and 13.00% and 14.89%
Glucose labeling, Leu/Ile (listed as D): -2.22e-14% and 0.00% (4×) and 1.11e-14%
Glucose labeling, Mal (listed as D): 22.81% and 24.17% and 24.40% and 21.37% and 22.21% and 23.38%
Glucose labeling, Met (listed as D): 0.00216% and 0.00198% and 0.00236% and 0.00202% and 0.00192% and 0.00223%
Glucose labeling, N-Carbamoyl-L-aspartate (listed as D): 0.000983% and 0.12% (2×) and 0.00101% and 100.00% (2×)
Glucose labeling, NADP+ (listed as D): 100.00% (4×) and 0.00% (2×)
Glucose labeling, Ornithine (listed as D): 0.08% (2×) and 0.12% (3×) and 0.09%
Glucose labeling, Orotate (listed as D): 5.20% and 3.14% and 4.02% and 100.00% and 0.12% (2×)
Glucose labeling, Orotidine (listed as D): 49.18% and 49.16% and 49.11% and 54.80% and 53.82% and 55.45%
Glucose labeling, P-Choline (listed as D): 0.00228% and 0.00166% (2×) and 0.00229% and 0.00101% and 0.00171%
Glucose labeling, P-Ser (listed as D): 21.30% and 20.75% and 19.61% and 16.22% and 19.77% and 14.08%
Glucose labeling, Palmitate (listed as D): 0.0136% and 0.0179% and 0.09% and 0.03% and 0.0457% and 0.04%
Glucose labeling, Pantothenate (listed as D): 0.00% (5×) and 1.11e-14%
Glucose labeling, Pro (listed as D): 9.90% and 11.07% and 10.77% and 9.63% and 9.83% and 9.85%
Glucose labeling, Pro-OH (listed as D): 0.00135% and 0.00138% and 0.000869% and 0.0017% and 0.00248% and 0.00239%
Glucose labeling, R5P (listed as D): 87.51% and 100.00% (5×)
Glucose labeling, S7P (listed as D): 85.34% and 43.01% and 49.65% and 0.26% and 34.90% and 73.97%
Glucose labeling, SAM (listed as D): 73.81% and 73.09% and 74.83% and 72.35% and 72.18% and 72.31%
Glucose labeling, Sarc (C00213) (listed as D): 0.0243% (2×) and 0.0369% (3×) and 0.0225%
Glucose labeling, Ser (C00065) (listed as D): 13.87% and 15.01% and 14.51% and 12.51% and 11.83% and 11.82%
Glucose labeling, Shikimate (C00493) (listed as D): 0.00% (5×) and 1.11e-14%
Glucose labeling, Succ (C00042) (listed as D): 0.0276% and 1.49% and 1.88% and 0.0331% and 0.0737% (2×)
Glucose labeling, T (C00214) (listed as D): 0.15% and 0.44% and 0.32% and 0.24% and 0.03% and 0.02%
Glucose labeling, Thymine (C00178) (listed as D): 0.02% (2×) and 0.00812% and 0.0214% and 0.0432% and 0.0317%
Glucose labeling, Tyr (C00082) (listed as D): 0.00% (5×) and 1.11e-14%
Glucose labeling, Tyramine (C00483) (listed as D): 0.00% (5×) and 1.11e-14%
Glucose labeling, UDP (C00015) (listed as D): 74.72% and 81.32% and 85.65% and 45.74% and 66.67% and 72.12%
Glucose labeling, UDP-Glc (C00029) (listed as D): 95.49% and 96.74% and 98.34% and 91.90% and 85.90% and 94.22%
Glucose labeling, UDP-GlcNAc (C00043) (listed as D): 91.41% and 90.20% and 90.50% and 87.89% and 87.54% and 87.94%
Glucose labeling, UMP (C00105) (listed as D): 79.30% and 82.81% and 83.09% and 50.51% and 65.12% and 69.81%
Glucose labeling, UTP (C00075) (listed as D): 90.44% and 89.69% and 89.62% and 94.73% and 88.15% and 87.27%
Glucose labeling, Uracil (C00106) (listed as D): 0.0737% (3×) and 0.06% and 0.05% and 0.065%
Glucose labeling, Uric Acid (C00366) (listed as D): 0.00% (4×) and -2.22e-14% (2×)
Glucose labeling, Urocanate (C00785) (listed as D): 0.00% (5×) and 1.11e-14%
Glucose labeling, Vit-C (C00072) (listed as D): 0.00% (4×) and 1.11e-14% (2×)
Glucose labeling, Xanthine (C00385) (listed as D): 0.10% (2×) and 0.12% (3×) and 0.08%
Relative level, Isocaproate (listed as D): 1.0 (2×) and 0.8 and 0.9 (3×)
Relative level, Lac (listed as D): 1.1 and 0.9 and 1.0 and 0.446 and 0.548 and 0.7
Relative level, Leu/Ile (listed as D): 1.0 and 1.3 and 1.5 and 0.8 (2×) and 0.9
Relative level, Lys (listed as D): 1.2 (2×) and 1.5 and 0.8 (2×) and 0.9
Relative level, Mal (listed as D): 0.8 and 1.0 and 1.4 and 0.339 and 0.53 and 0.65
Relative level, Met (listed as D): 1.0 and 1.3 and 1.4 and 0.8 (2×) and 0.9
Relative level, N-Carbamoyl-L-aspartate (listed as D): 0.7 and 1.5 and 2.9 and 0.5
Relative level, NAD+ (listed as D): 0.8 and 1.1 (2×) and 1.3 and 0.553 and 0.7
Relative level, NADP+ (listed as D): 1.6 and 0.273
Relative level, Nicotinamide (listed as D): 1.3 and 1.4 and 1.2 and 0.7 and 0.743 and 0.527
Relative level, Ornithine (listed as D): 1.6 and 0.9 and 1.1 and 0.8 (2×) and 1.0
Relative level, Orotate (listed as D): 0.468 and 0.9 and 0.8 and 0.0556 and 0.0189
Relative level, Orotidine (listed as D): 1.2 and 1.6 and 1.5 and 0.8 (2×) and 0.9
Relative level, P-Choline (listed as D): 1.0 and 1.1 and 1.4 and 0.5 (2×) and 0.65
Relative level, P-Creatine (listed as D): 0.8 and 0.6 and 1.6 and 2.2 and 1.2 and 1.5
Relative level, P-EtA (listed as D): 0.9 and 0.452 and 1.3 and 0.5 and 0.6 and 0.8
Relative level, P-Ser (listed as D): 1.2 and 1.3 (2×) and 0.3 and 0.317 and 0.334
Relative level, Palmitate (listed as D): 1.1 (4×) and 0.85 and 0.9
Relative level, Pantothenate (listed as D): 1.2 and 1.6 and 1.7 and 0.9 (3×)
Relative level, Phe (listed as D): 1.1 and 1.4 and 1.6 and 0.9 (2×) and 1.0
Relative level, Pipecolate (listed as D): 1.2 and 1.1 and 1.4 and 0.8 and 0.7 and 0.9
Relative level, Pro (listed as D): 1.0 and 1.3 (2×) and 0.8 (2×) and 0.753
Relative level, Pro-OH (listed as D): 1.1 and 1.2 and 1.3 and 0.8 (2×) and 0.75
Relative level, Pyr (listed as D): 0.171 and 2.0 and 11.3 and 1.7 and 3.4 and 3.3
Relative level, R5P (listed as D): 0.9 and 0.4 and 2.2 and 0.2
